Assay results taken from PMC5803267, “A small molecule inhibitor of Rheb selectively targets mTORC1 signaling” (Nature Communications, 2018).

Tested on: T389pS6K1 in HEK293 cells
Assay: T389pS6K1 in HEK293 cells transfected with WT or constitutively active mTOR mutants
Type: cell-based, human
Conditions: HEK293, 30 µM NR1 for 90 min
Protocol: MCF-7 cells were serum-starved for 16 h and treated with compound for 90 min before cell lysis and Western blot analysis. For insulin-stimulated cells, 100 nM insulin was added 30 min before cell lysis. For EGF-stimulated cells, 100 ng mL^−1 EGF was added 10 min before cell lysis. c Rap1 activity was detected in lysates loaded in vitro with either GDP or GTPγS and treated with NR1 at the indicated concentrations. This was followed by a subsequent pulldown of GST-RalGDS-RBD. Bound Rap1 was detected by Western blot. d Evaluation of NR1 in a LAM patient-derived cell line (TRI102) under replete and serum-starved conditions. For replete conditions, TRI102 cells were treated for 90 min with compound in DMEM + 10% FBS. For serum-starved conditions, TRI102 cells were serum-starved 16 h and then treated for 90 min with compound prior to cell lysis and Western blot analysis. e HEK293 cells co-transfected with the indicated mTOR constructs and HA-GST-S6K1 were starved of amino acids or treated with NR1. […]
To further support Rheb as the target of NR1, we assessed whether NR1 could inhibit ^T389pS6K1 in cells transfected with constitutively active, Rheb-independent double mutants of mTOR originally described by Xu et al.[48]. […]

Structure (SMILES): CN(C)C(=O)c1ccc(Cn2c(C(=O)O)cc3c(Br)cc(Sc4ccc(Cl)c(Cl)c4)cc32)cc1 [NR1, 4-bromo-6-(3,4-dichlorophenylthio)-1-(4-(dimethylcarbamoyl)benzyl)-1H-indole-2-carboxylic acid]
- T389pS6K1 phosphorylation with Rheb-independent mTOR mutants: no impact on pS6K1
- T389pS6K1 phosphorylation with vehicle or WT mTOR: reduces
